The series is described as follows: Progesterone plasma levels after intramuscular-type injection of injectable aqueous suspension of progesterone particles. The series is classed as in vivo, post-menopausal women. The conditions noted are these: female, human, humans, across the dosing schemes (100-300 mg, single or repeated injection), read-out: maximum plasma concentrations (Cmax). The protocol: 12 post-menopausal women were administered with a 100 mg single injection of progesterone spherical microparticles, in the form of an injectable aqueous suspension. Obtained plasma levels are illustrated in FIG. 1, wherein progesterone plasma concentrations are observed to be maintained up to 7 days in suitable levels for several therapies requiring said progesterone concentrations. 12 post-menopausal women were administered with a single 200 mg injection of progesterone spherical microparticles in the form of an injectable aqueous suspension. Obtained plasma levels are illustrated in FIG. 2, wherein progesterone plasma concentrations are observed to be maintained up to 7 days in suitable levels for several therapies requiring said progesterone concentrations and described in page 2. Four 200 mg repeated injections of progesterone spherical microparticles were administered in the form of an injectable aqueous suspension to 15 post-menopausal women. Obtained plasma levels are illustrated in FIG. 3, wherein progesterone plasma concentrations are observed to be maintained up to 7 days in suitable levels for several therapies requiring said progesterone concentrations and described in page 2. Four 300 mg repeated injections of progesterone spherical microparticles were administered in the form of an injectable aqueous suspension to 13 post-menopausal women. […]

The values that follow come from patent publication US20110104289A1, “METHOD AND PHARMACEUTICAL COMPOSITION FOR OBTAINING THE PLASMATIC PROGESTERONE LEVELS REQUIRED FOR DIFFERENT THERAPEUTIC INDICATIONS” (POSI VISIONARY SOLUTIONS LLP, priority 2008, published 2011).

Take `CC(=O)[C@H]1CC[C@H]2[C@@H]3CCC4=CC(=O)CC[C@]4(C)[C@H]3CC[C@]12C` [progesterone]: the Cmax was 12 to 42 ng/mL.
